Reference: patent US20060166994A1, “Method for treating renal failure” (priority 2003, published 2006)

Legend:
[1] = 180-day mortality in heart failure patients with normal or impaired renal function (pooled levosimendan trials 3001021b and 3001030); type: in vivo, human; settings: for 180-day mortality in levosimendan groups: heart failure patients, i.v. infusion 6 or 24 h
Description: In total, 701 heart failure patients from levosimendan trials 3001021b and 3001030 were included into the analysis to determine the effect of levosimendan on mortality in patients with normal or impaired renal function.
The study 3001021b compared levosimendan with dobutamine in a double-blind, parallel-group, randomised trial in 203 patients with low-output heart. Treatment with levosimendan (n=103) was started with a loading dose of 24 μg/kg infused over 10 minutes and followed by a continuous infusion of 0.1 μg/kg/min. For patients in whom the cardiac index had not increased by at least 30% compared with the baseline value at 2 hours, the dose was doubled to 0.2 μg/kg/min for levosimendan (n=69). Infusions were continued for totally 24 hours. Mortality was followed prospectively up to 31 days and retrospectively up to 180 days.
The study 3001030 evaluated the safety of levosimendan in patients with left ventricular failure after an acute myocardial infarction. The study was a placebo-controlled, double-blind, parallel-group, randomised, trial in 504 patients. Levosimendan was administered as a 10-minute loading dose followed by a continuous infusion for a total of 6 hours. The following doses were used: 6 μg/kg+0.1 μg/kg/min (n=103), 12 μg/kg+0.2 μg/kg/min (n=100), 24 μg/kg+0.2 μg/kg/min (n=99), 24 μg/kg+0.4 μg/kg/min (n=100) and similar placebo infusion (n=102). All-cause mortality was followed prospectively up to 14-days and retrospectively up to 180-days.
The patients combined from the above studies were classified according to their baseline renal function. The formula of Cockroft and Gault (Lafayette et al, 1997) was used to calculate the creatinine clearance (CLcr) values from the baseline serum creatinine) values as follows: [formula] [formula]

[2] = Elimination half-life of the active metabolite (II) in man; settings: human, in vivo

half-life [2] [days]	SMILES	Decrease in mortality versus control groups by renal function ([1]; 180-day, comparison of normal and impaired renal function)	180-day mortality in levosimendan groups ([1]; mild renal impairment (CLcr 50-80 ml/min)) [%]	180-day mortality in levosimendan groups ([1]; normal renal function (CLcr > 80 ml/min)) [%]
–	CC1CC(=O)NN=C1c1ccc(NN=C(C#N)C#N)cc1 (single isomer, unassigned; (-)) [Levosimendan, (−)-enantiomer of [[4-(1,4,5,6-tetrahydro-4-methyl-6-oxo-3-pyridazinyl)phenyl]hydrazono]propanedinitrile]	decrease in mortality was highest in patients with impaired renal function	18	15
~3	CC(=O)Nc1ccc(C2=NNC(=O)C[C@H]2C)cc1 [active metabolite (II), (R)-N-[4-(1,4,5,6-tetrahydro-4-methyl-6-oxo-3-pyridazinyl)phenyl]acetamide]	–	–	–
